{"source": "patent US20220193013A1", "about": "“Pharmaceutical Composition for Treatment or Prevention of Multiple Inflammatory Disorders” (priority 2020, published 2022)", "key": {"[1]": {"system": "leptin-deficient (ob/ob) mice", "assay": "body weight study of denatonium acetate in leptin-deficient (ob/ob) mice fed with high-fat diet, 28 days", "format": "in vivo, mouse", "settings": "vs vehicle", "method": "This example describes an in vivo study of denatonium acetate on body weight in leptin-deficient (ob/ob) mice. Adult leptin-deficient mice (homozygote, ob/ob mice) fed with high-fat diet. There was a vehicle control group (15 mice) that were treated with distilled water by gavage BID. The DA group (15 mice) were treated with a DA solution at a dose of 23.1 mg/kg BID. Body weights and body weight changes were determined at days 1, 3, 7, 10, 14, 21, 24 and 28. Food intake was determined on days 3, 7, 10, 14, 17, 21, […] and 28. On day 28 blood samples were taken for cytokine analysis, HbA1c, HDL, LDL, insulin, and bile acids. Statistics were done by two-way repeated measures ANOVA followed by Tukey's multiple comparison post hoc test."}, "healthy mouse": {"system": "healthy mouse", "assay": "cytokine profile and routes of administration in healthy mouse", "format": "in vivo", "settings": "for VEGF (versus controls): p=0.001", "method": "This example provides results of a study to evaluate the effect of denatonium acetate on a healthy mouse as measured by cytokine profile and routes of administration of DA. The study groups were: (1) Vehicle group, N=12, treated with distilled water, gavage, BID; (2) DA oral low dose group, N=12, treated with DA at a dose of 23.1 mg/kg (salt weight), gavage, BID; (3) DA oral high dose group, N=12, treated with DA at a dose of 92.4 mg/kg (salt weight), gavage, BID; (4) DA IV low dose group, N=12, treated with DA at a dose of 1 mg/kg (salt weight), iv bolus, QD; (5) DA IV high dose group, N=12, treated with ARD-101 at a dose of 3 mg/kg (salt weight), iv bolus, QD."}, "[2]": {"system": "leptin-deficient (ob/ob) mice", "assay": "body weight study in leptin-deficient (ob/ob) mice, 56 days", "format": "in vivo, mouse", "method": "Therefore, ob/ob mice are a predictive in vivo model for these indications. This example provides results of a study of DA plus another compound (CQL) on body weight in leptin-deficient (ob/ob) mice. Vehicle group (N=14) were treated with distilled water by gavage BID, and DA (N=14) at a dose of 50 mg/kg by gavage BID. The study period was for 56 days+2-3 days testing period afterward. Body weight change measured 3X per week, food intake was measure twice per week, metabolic biomarkers (blood glucose, blood insulin, blood HbA1c, HDL, LDL, triglyceride and bile acid) were measured at beginning and end of study. Cytokine analysis was measured at end on Day 56."}, "[3]": {"settings": "23.1 mg/kg BID, pre-dose to day 28, not statistically significant"}, "[4]": {"settings": "DA 50 mg/kg BID, day 56, no significant difference"}, "[5]": {"settings": "DA 50 mg/kg gavage BID, 56 days"}, "[6]": {"settings": "DA 50 mg/kg gavage BID, compared to vehicle"}}}
{"smiles": "CC(=O)[O-].CC[N+](CC)(CC(=O)Nc1c(C)cccc1C)Cc1ccccc1", "note": "[DA, denatonium acetate]", "values": [{"measurement": "average daily average individual food intake", "setting": "[1]; 23.1 mg/kg BID gavage, 28 days", "value": "no difference"}, {"measurement": "GM-CSF in blood", "setting": "[1]; 23.1 mg/kg BID gavage, day 28", "value": "significant decreases"}, {"measurement": "IFNγ in blood", "setting": "[1]; 23.1 mg/kg BID gavage, day 28", "value": "significant decreases"}, {"measurement": "IL-5 in blood", "setting": "[1]; 23.1 mg/kg BID gavage, day 28", "value": "significant decreases"}, {"measurement": "IL-10 in blood", "setting": "[1]; 23.1 mg/kg BID gavage, day 28", "value": "significant decreases"}, {"measurement": "IL-12 in blood", "setting": "[1]; 23.1 mg/kg BID gavage, day 28", "value": "significant decreases"}, {"measurement": "KC/CXCL1 in blood", "setting": "[1]; 23.1 mg/kg BID gavage, day 28", "value": "significant decreases"}, {"measurement": "M-CSF in blood", "setting": "[1]; 23.1 mg/kg BID gavage, day 28", "value": "significant decreases"}, {"measurement": "blood HDL level", "setting": "[1]; 23.1 mg/kg BID gavage, day 28", "value": "statistically significant decrease"}, {"measurement": "blood HbA1c levels", "setting": "[1]; 23.1 mg/kg BID gavage, day 28", "value": "no statistically significant difference"}, {"measurement": "blood LDL levels", "setting": "[1]; 23.1 mg/kg BID gavage, day 28", "value": "no statistically significant difference"}, {"measurement": "blood bile acid levels", "setting": "[1]; 23.1 mg/kg BID gavage, day 28", "value": "no statistically significant difference"}, {"measurement": "blood insulin levels", "setting": "[1]; 23.1 mg/kg BID gavage, day 28", "value": "no statistically significant difference"}, {"measurement": "blood total cholesterol levels (LDL plus HDL)", "setting": "[1]; 23.1 mg/kg BID gavage, day 28", "value": "almost significant decrease"}, {"measurement": "fasting blood glucose level", "setting": "[1]; 23.1 mg/kg BID gavage, day 28", "value": "no statistically significant difference"}, {"measurement": "body weight change", "setting": "[1]; 23.1 mg/kg BID gavage, days 1-28, P=0.105", "value": "no significant main effect"}, {"measurement": "body weight change at day 28", "setting": "[1]; 23.1 mg/kg BID gavage", "value": "no statistically significant difference"}, {"measurement": "cumulative food consumption over 28 days", "setting": "[1]; 23.1 mg/kg BID gavage", "value": "no statistically significant difference"}, {"measurement": "change in granulocyte number", "setting": "[1]; [3]", "value": "trend of increasing change"}, {"measurement": "change in lymphocyte and white blood cell numbers and percentage", "setting": "[1]; [3]", "value": "trend of increasing change"}, {"measurement": "change in monocyte number and percentage", "setting": "[1]; [3]", "value": "trend of increasing change"}, {"measurement": "biomarker (cytokine) effects", "setting": "healthy mouse; either iv DA dose (1 or 3 mg/kg iv bolus QD)", "value": "no biomarker (cytokine) effects"}, {"measurement": "VEGF (versus controls)", "setting": "healthy mouse; higher dose oral DA 92.4 mg/kg BID", "value": "significant decreases"}, {"measurement": "IL-9 (versus controls)", "setting": "healthy mouse; higher dose oral DA 92.4 mg/kg BID, p=0.003", "value": "significant decreases"}, {"measurement": "GM-CSF (versus controls)", "setting": "healthy mouse; higher dose oral DA 92.4 mg/kg BID, p=0.03", "value": "significant decreases"}, {"measurement": "KC (versus controls)", "setting": "healthy mouse; higher dose oral DA 92.4 mg/kg BID, p=0.05", "value": "significant decreases"}, {"measurement": "side effects", "setting": "healthy mouse; iv administration only", "value": "toxic side effects"}, {"measurement": "VEGF (versus controls)", "setting": "healthy mouse; lower dose oral DA 23.1 mg/kg BID", "value": "significant decreases"}, {"measurement": "G-CSF (versus controls)", "setting": "healthy mouse; lower dose oral DA 23.1 mg/kg BID, p=0.003", "value": "significant decreases"}, {"measurement": "MCP-1 (versus controls)", "setting": "healthy mouse; lower dose oral DA 23.1 mg/kg BID, p=0.005", "value": "significant decreases"}, {"measurement": "MIP-2 (versus controls)", "setting": "healthy mouse; lower dose oral DA 23.1 mg/kg BID, p=0.015", "value": "significant decreases"}, {"measurement": "IL-13 (versus controls)", "setting": "healthy mouse; lower dose oral DA 23.1 mg/kg BID, p=0.03", "value": "significant decreases"}, {"measurement": "IL-1α (versus controls)", "setting": "healthy mouse; lower dose oral DA 23.1 mg/kg BID, p=0.04", "value": "significant decreases"}, {"measurement": "IL-1β level, decreased by, compared to the vehicle group", "setting": "[2]; [4]", "value": 19.1, "unit": "%"}, {"measurement": "IL-6 level, decreased by, compared to the vehicle group", "setting": "[2]; [4]", "value": 61.4, "unit": "%"}, {"measurement": "MCP-1 level, decreased by, compared to the vehicle group", "setting": "[2]; [4]", "value": 20.9, "unit": "%"}, {"measurement": "RANTES level, decreased by, compared to the vehicle group", "setting": "[2]; [4]", "value": 1.7, "unit": "%"}, {"measurement": "MIG (versus controls)", "setting": "[2]; DA 50 mg/kg BID, day 56, p=0.026", "value": "significant decreases"}, {"measurement": "Eotaxin (versus controls)", "setting": "[2]; DA 50 mg/kg BID, day 56, p=0.047", "value": "significant decreases"}, {"measurement": "serum HDL levels", "setting": "[2]; DA 50 mg/kg gavage BID", "value": "no significant effects"}, {"measurement": "body weight", "setting": "[2]; [5]", "value": "no significant effect"}, {"measurement": "daily food consumption", "setting": "[2]; [5]", "value": "no significant effect"}, {"measurement": "serum HBA1c levels", "setting": "[2]; [5]", "value": "no significant effect"}, {"measurement": "serum glucose levels", "setting": "[2]; [5]", "value": "significantly decreased"}, {"measurement": "serum insulin levels", "setting": "[2]; [5]", "value": "no significant effect"}, {"measurement": "serum LDL levels", "setting": "[2]; [6]", "value": "significantly lowered"}, {"measurement": "serum bile acids levels", "setting": "[2]; [6]", "value": "significantly increased"}, {"measurement": "serum triglyceride levels", "setting": "[2]; [6]", "value": "significantly lowered"}]}
